Test results reported in US7022699B2, “Cyclohexenyl phenyl diazepines vasopressin and oxytocin receptor modulators” (Wyeth, priority 2001, dated 2006).

Legend:
human oxytocin receptor = biological target: T1, human oxytocin receptor (Homo sapiens, UniProt P30559); test: Oxytocin binding in CHO cell membranes expressing human oxytocin receptors ([3H]oxytocin); conditions: 100 nM, values without parentheses, read-out: OT % inhibition @ 100 nM
T1 construct: host or cells: CHO cells, stably transfected (pcDNA3.1 vector); membranes
T1 sequence (P30559 1-389): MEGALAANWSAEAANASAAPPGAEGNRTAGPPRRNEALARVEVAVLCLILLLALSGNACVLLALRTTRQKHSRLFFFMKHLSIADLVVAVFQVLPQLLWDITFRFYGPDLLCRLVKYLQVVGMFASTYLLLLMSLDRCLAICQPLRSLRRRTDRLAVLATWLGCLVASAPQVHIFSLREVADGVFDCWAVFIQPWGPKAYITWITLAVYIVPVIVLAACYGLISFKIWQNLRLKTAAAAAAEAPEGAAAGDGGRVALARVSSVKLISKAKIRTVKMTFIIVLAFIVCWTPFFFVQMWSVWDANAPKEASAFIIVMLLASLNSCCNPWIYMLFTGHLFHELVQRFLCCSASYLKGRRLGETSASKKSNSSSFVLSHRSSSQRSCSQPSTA
Text: Oxytocin Binding in Chinese Hamster Ovary Cell Membranes Expressing Human Oxytocin Receptors
Chinese Hamster Ovary (CHO) cells stably transfected with the human oxytocin (cf. Tanizawa et al., U.S. Pat. No. 5,466,584 (1995) to Rohto Pharmaceutical Co. Ltd., Osaka, Japan) were obtained from M. Thibonnier, Case Western Reserve University School of Medicine, Cleveland, Ohio. A. Passaging and Amplification of Cells: CHO cells transfected with the human oxytocin receptors obtained from M. Thibonnier (pcDNA3.1 vector) are allowed to grow to confluency (approx. >90%) in T-150 flasks under sterile conditions, in a cell culture medium of F-12 Nutrient Mixture (HAM) with L-glutamine (Gibco Cat. #11765-054) containing 15 mM HEPES (Gibco Cat. #15630-080), 1% antibiotic/antimycotic (add 5 mL 100×, Gibco Cat. #15240-062 per 500 mL F-12), 400 μg/mL of Geneticin (add 4 mL of 50 mg/mL per 500 mL F-12) and 10% Fetal Bovine Serum (Qualified, heat inactivated, Gibco Cat. #16140-063). The medium is removed by aspiration and the cells are washed with 10 mL of Hank's Balanced Salt solution (Gibco Cat. #14175-095). The salt solution is removed by aspiration and the cells trypsinized with 5 mL of trypsin-EDTA (0.05% trypsin, 0.53 mM EDTA-4Na, Gibco Cat. #25300-070) for 1 min. The trypsin is removed by aspiration and the cells dislodged by tapping. Cell Culture medium (e.g. 30 mL for 1:30 split) is immediately added and mixed well to inactivate trypsin. 1 mL of detached cells is added to new culture flasks containing fresh Cell Culture medium (e.g. into 25 mL per T-150 flask), and mixed gently. The cells are incubated at 37° C. in 5% CO2. The medium is changed at 3 to 4 days interval (or as appropriate). The cells grow to confluency (approx. >75%–95%) within 7–8 days. All steps are done under sterile conditions. B. Membrane Preparation: The cells are washed twice gently with Hank's Balanced Salt solution (e.g., use 10 mL per T-150 flask). The excess is removed and the cells bathed for 15–30 min. in an enzyme-free Cell Dissociation Buffer (e.g., use 8 mL Hank's Based, Gibco Cat. #13150-016 per T-150 flask) until cells are loosened. The contents are transferred to centrifuge tubes (50 mL size) kept in ice bath. All subsequent steps are done at 4° C. The tubes are centrifuged at 300×g for 15 min (1380 rpm on SORVAL, Model RT6000D, using rotor for 50 mL tubes). The supernatant is discarded and the cells suspended in homogenizing buffer (10 mM Tris-HCl containing 0.25 M sucrose and 1 mM EDTA, pH 7.4) ensuring that the volume of the buffer is about ten times the volume of the cell pellet. The cells are pooled into a centrifuge tube (50 mL) and homogenized with Polytron at setting 6 for 10 sec. The homogenate is transferred into a Potter-Elvjehm homogenizer and homogenized with 3 strokes. The homogenate is centrifuged at 1500×g for 10 min at 4° C. (3100 rpm using SORVAL, model RT6000D, using rotor for 50 mL tubes). The pellet. is discarded. The supernatant is centrifuged at 100,000×g for 60 min. at 4° C. (Beckman L8-80M ultracentrifuge; spin at 37,500 rpm with rotor type 70 Ti for 50 mL tubes; 38,000 rpm with type 80Ti for 15 mL tubes; or 35,800 rpm with rotor type 45Ti). The supernantant is discarded and the pellet suspended in 3 to 4 mL of Tris buffer (50 mM TRIS-HCl, pH 7.4). The protein content is estimated by the Bradford or Lowry method. The volume of the membrane suspension is adjusted with the membrane buffer (50 mM Tris-HCl containing 0.1% BSA and 0.1 mM PMSF) to give 3.0 mg/mL (or as appropriate) of protein. The membranes are aliquoted and stored at −70° C. C. Radioligand Binding Assay: In wells of a 96-well format microliter plate, is added 90, 110 or 130 μL (to make up a final volume of 200 μL) of assay buffer containing 50 mM of Tris-HCl (pH 7.4), […], 1 mg % aprotinin, 1 mg % leupeptin, 2 mg % 1,10-phenanthroline, 10 mg % trypsin inhibitor, and 0.1 mM PMSF. The inhibitors are added on the day of the experiment. […]

| Structure (SMILES) | melting point | inhibition at 0.1 µM (human oxytocin receptor) |
| --- | --- | --- |
| Cc1cc(C(=O)N2Cc3cccn3Cc3ccccc32)ccc1C1=CC(C)(C)CC(C)(C)C1 [Example 37, (10,11-Dihydro-5H-pyrrolo[2,1-c][1,4]benzodiazepin-10-yl)-[3-methyl-4-(3,3,5,5-tetramethyl-cyclohex-1-en-1-yl)-phenyl]-methanone] | 158 °C | 30% |
| Cc1cc(C(=O)N2Cc3cccn3Cc3ccccc32)ccc1C1=CC(=O)CCC1 [Example 39, 3-[4-(10,11-Dihydro-5H-pyrrolo[2,1-c][1,4]benzodiazepine-10-carbonyl)-2-methyl-phenyl]-cyclohex-2-en-1-one] | 176 to 177 °C | 76% |
